Literature values in patent US20170196950A1, “METHOD FOR PRODUCING AUTOLOGOUS TOLEROGENIC DENDRITIC CELLS (TOLDCS) WITH SPECIFIC ANTIGENS AND THEIR USE IN THE PREPARATION OF A MEDICAMENT USEFUL FOR THE TREATMENT OF SYSTEMIC LUPUS ERYTHEMATOSUS (SLE)” (PONTIFICIA UNIVERSIDAD CATOLICA DE CHILE, priority 2014, published 2017).

Tests used:
lupus nephritis patients = conditions: maintenance phase
lupus patients = conditions: controlled clinical studies

Row | Molecule | Patients who presented serious adverse effects (lupus nephritis patients) [%] | Patients withdrawn from the study (lupus nephritis patients) [%] | Efficacy in lupus (lupus patients)
1 | Cn1cnc([N+](=O)[O-])c1Sc1ncnc2nc[nH]c12 [azathioprine] | 33.3 | 39.6 | 
2 | rituximab |  |  | no efficacy
3 | COc1c(C)c2c(c(O)c1C/C=C(\C)CCC(=O)OCCN1CCOCC1)C(=O)OC2 [MMF, mycophenolate mofetil] | 23.5 | 25.2 | 
